Experimental data as given in ChEMBL document CHEMBL1201862, “PubChem BioAssay data set” (2004).
Calls of active or inactive are those of the source.

Tests used:
[1] = cytotoxicity in HPDE-C7 cells, cell-based, fluorescence, HTS (AID 430); assay type: functional; conditions: Homo sapiens
[2] = cytotoxicity in KRAS-transformed pancreatic duct cells, primary screen, cell-based, fluorescence, HTS (AID 431); assay type: functional; conditions: Homo sapiens;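 note: cell line used: HPDE-C7K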
[3] = biological target: T1, Tyrosine-protein phosphatase non-receptor type 7 (Homo sapiens, UniProt P35236); experiment: inhibitors of human HePTP phosphatase, […], biochemical, absorbance, leukemia target (AID 521); assay type: functional
T1 sequence (P35236 whole entry): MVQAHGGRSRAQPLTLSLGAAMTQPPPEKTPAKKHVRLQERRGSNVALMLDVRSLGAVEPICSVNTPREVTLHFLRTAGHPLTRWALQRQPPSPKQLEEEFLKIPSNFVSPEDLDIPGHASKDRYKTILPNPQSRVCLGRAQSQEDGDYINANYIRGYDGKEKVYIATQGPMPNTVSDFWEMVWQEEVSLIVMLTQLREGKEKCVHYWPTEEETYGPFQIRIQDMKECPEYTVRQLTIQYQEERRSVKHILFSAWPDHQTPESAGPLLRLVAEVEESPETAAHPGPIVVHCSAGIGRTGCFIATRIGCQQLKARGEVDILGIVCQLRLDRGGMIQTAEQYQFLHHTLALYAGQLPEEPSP

Prothrombin = Prothrombin (Homo sapiens, UniProt P00734); experiment: Thrombin 1536 HTS Dose Response Confirmation. [Related pubchem assays: 1046 (Thrombin 1536 HTS; hits were confirmed in this assay)]; assay type: functional
[4] = biological target: T2, Oxysterols receptor LXR-beta (Homo sapiens, UniProt P55055); experiment: LXR agonists, Gal4 luciferase reporter, dose response, counter-screen for ssDAF-12 agonist project, cell-based, luminescence, HEK293, S. stercoralis campaign (AID 720737); assay type: functional; conditions: read-out: IC50 (the source's name)
T2 sequence (P55055 whole entry): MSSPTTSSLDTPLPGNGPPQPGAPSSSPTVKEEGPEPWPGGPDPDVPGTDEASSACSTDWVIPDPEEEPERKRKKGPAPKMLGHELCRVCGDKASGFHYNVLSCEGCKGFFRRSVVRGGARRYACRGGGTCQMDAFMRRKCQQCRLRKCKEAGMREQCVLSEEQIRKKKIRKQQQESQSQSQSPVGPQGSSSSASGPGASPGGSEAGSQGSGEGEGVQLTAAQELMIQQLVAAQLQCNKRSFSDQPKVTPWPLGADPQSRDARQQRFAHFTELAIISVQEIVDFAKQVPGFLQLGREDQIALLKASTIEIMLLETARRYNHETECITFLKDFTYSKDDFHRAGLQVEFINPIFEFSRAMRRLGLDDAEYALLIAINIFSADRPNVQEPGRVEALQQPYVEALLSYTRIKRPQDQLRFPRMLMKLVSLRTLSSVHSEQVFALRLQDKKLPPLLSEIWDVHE

cells [5] = experiment: cells
Protein skinhead-1 = biological target: T3, Protein skinhead-1 (Caenorhabditis elegans, UniProt P34707); assay type: functional
T3 sequence (P34707 whole entry): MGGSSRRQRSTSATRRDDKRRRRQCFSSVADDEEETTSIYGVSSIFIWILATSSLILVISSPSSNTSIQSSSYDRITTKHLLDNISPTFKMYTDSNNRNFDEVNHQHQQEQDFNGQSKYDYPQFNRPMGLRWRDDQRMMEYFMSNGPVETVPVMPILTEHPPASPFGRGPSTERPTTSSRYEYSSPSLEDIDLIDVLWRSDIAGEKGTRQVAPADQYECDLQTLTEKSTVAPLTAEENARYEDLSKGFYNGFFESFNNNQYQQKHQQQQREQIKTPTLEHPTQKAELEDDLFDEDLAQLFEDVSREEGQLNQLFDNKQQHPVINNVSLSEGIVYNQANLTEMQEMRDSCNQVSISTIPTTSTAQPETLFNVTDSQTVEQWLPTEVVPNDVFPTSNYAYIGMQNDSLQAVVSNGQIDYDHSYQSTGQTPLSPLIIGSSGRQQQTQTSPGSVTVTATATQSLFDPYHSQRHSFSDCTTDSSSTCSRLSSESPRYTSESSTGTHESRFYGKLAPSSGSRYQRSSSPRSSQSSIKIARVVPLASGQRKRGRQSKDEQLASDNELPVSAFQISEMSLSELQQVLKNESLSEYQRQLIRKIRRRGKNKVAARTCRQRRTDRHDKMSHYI

[6] = HEp-2 cell cytotoxicity, dose response, cytotoxicity control for RSV inhibitor project, HTS (AID 2410); assay type: functional; conditions: human respiratory syncytial virus
[7] = Luminescence-based cell-based high throughput dose response assay to identify activators of the DAF-12 from the parasite S. stercoralis (ssDAF-12).; assay type: functional
[8] = biological target: T2, Oxysterols receptor LXR-beta; assay type: functional, cell-based
[9] = biological target: Disintegrin and metalloproteinase domain-containing protein 17 (Homo sapiens, UniProt P78536); experiment: ADAM17 protease inhibitors, dose response, counter-screen for ADAM10 exosite inhibitor project, biochemical, quenched FRET substrate (AID 743253)
Chain of Disintegrin and metalloproteinase domain-containing protein 17 (P78536 whole entry, the tested form may be a part): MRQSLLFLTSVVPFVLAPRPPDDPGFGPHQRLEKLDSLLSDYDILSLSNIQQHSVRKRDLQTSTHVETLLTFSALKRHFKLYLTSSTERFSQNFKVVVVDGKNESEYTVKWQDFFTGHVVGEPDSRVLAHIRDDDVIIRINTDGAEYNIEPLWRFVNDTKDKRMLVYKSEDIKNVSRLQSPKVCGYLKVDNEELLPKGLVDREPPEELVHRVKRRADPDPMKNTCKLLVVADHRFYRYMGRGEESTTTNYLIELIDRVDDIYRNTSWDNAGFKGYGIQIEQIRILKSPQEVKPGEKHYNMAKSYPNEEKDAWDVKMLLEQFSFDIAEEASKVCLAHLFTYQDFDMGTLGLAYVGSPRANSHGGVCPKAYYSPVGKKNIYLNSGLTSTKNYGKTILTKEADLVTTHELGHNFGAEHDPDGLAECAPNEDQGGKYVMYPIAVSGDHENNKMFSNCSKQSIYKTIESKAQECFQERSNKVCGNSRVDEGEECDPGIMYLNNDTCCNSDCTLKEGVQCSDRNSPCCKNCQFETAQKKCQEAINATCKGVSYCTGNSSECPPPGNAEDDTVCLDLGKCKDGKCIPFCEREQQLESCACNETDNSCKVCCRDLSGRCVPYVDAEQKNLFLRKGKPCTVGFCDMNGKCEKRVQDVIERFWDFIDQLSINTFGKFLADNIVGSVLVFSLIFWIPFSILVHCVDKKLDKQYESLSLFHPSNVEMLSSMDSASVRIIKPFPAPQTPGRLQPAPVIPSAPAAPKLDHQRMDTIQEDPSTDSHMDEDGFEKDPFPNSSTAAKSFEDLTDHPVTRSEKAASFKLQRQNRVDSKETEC

[10] = ADAM10 inhibitors, peptide cleavage, dose response, biochemical, QFRET (AID 743254);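 note: ADAM10 enzyme with the DM2 quenched FRET peptide as substrate; EDANS fluorescence gain as the protease cuts the substrate; inhibitor potency against ADAM10 proteolytic activity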
[11] = cytotoxicity toward NIH3T3 fibroblasts, dose response, counter-screen, cell-based, ATP luminescence, mouse fibroblasts (AID 2010); assay type: functional;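 note: cells exposed to compound for about 90 hours before reading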
[12] = inhibitors of intracellular T. cruzi replication, confirmation, NIH3T3 host cells, beta-gal luminescence (AID 2044); assay type: functional, cell-based;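 note: intracellular parasites grown in NIH/3T3 mouse fibroblasts as host cells; luminescent beta-galactosidase reporter signal from transgenic T. cruzi replicating inside host cells; inhibitors lower the luminescence signal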
cells [13] = experiment: cells; remark: listed apart in the source
[14] = HeLa 2N DNA content increase, dose response, cell-based, IC50 (AID 1117349); assay type: functional
[15] = HeLa 4N DNA content increase, dose response, cell-based, IC50 (AID 1117351); assay type: functional
INS1 = experiment: beta cell apoptosis inhibitors, cytokine rescue, dose response, luminescence, retest (AID 449756); assay type: functional, cell-based; conditions: Rattus norvegicus;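 note: cell death triggered by IL-1 beta plus TNF-alpha plus IFN-gamma mixture; protective hits raise ATP signal compared with cytokine alone wells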
[16] = microbe, parasite or virus in culture; assay type: functional; conditions: Mycobacterium tuberculosis
[17] = biological target: T4, Microphthalmia-associated transcription factor (Homo sapiens, UniProt O75030); experiment: TRPM1 promoter luciferase signal decrease, dose response, MITF inhibitor project, cell-based, SK-MEL-5, cherry-picked, set 3 (AID 493073); assay type: functional
T4 sequence (O75030 whole entry): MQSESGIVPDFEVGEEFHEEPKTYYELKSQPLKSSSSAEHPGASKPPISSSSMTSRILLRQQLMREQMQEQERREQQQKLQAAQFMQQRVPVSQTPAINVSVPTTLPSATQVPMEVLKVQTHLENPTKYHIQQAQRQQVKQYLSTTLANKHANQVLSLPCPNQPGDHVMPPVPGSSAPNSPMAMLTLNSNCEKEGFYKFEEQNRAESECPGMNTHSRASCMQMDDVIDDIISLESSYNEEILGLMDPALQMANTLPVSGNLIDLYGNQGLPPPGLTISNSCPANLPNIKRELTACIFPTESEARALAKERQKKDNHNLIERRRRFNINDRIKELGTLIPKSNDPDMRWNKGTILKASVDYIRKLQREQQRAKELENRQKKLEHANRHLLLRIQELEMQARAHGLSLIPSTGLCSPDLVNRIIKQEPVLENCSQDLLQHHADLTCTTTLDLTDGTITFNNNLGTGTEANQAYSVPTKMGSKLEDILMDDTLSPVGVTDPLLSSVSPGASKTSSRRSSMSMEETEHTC

[18] = NIH-3T3 fibroblast cytotoxicity, dose response, cytotoxicity control, cell-based, fluorescence, Alamar Blue, secondary assay (AID 2327); assay type: functional;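 note: NIH-3T3 mouse fibroblasts cultured with fluconazole at 8 µg/mL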
[19] = inhibitors of Vif binding to APOBEC3G peptide, primary screen, biochemical, TR-FRET, GST-Vif 1-94, biotin-A3G peptide, dose response retest (AID 1117319); assay type: functional;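 note: TR-FRET signal of purified GST-Vif binding a biotinylated A3G peptide; inhibitors lower the FRET signal by blocking Vif and A3G binding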

Which EC50 [1] does the source give for `Cc1ccc(C(=O)Nc2cccc(C(=O)NCc3ccccc3)c2)o1` here?
Its EC50 is 16.6 µM (active).

And the EC50 [2]?
The EC50 was 12.4 µM (active).

With `Cc1ccc(OCC(=O)Nc2ccc(-c3nnc(-c4ccco4)o3)cc2)cc1` as the compound, how does the IC50 [3] read?
The IC50 was > 100 µM (not active).

With `CCc1nc(O)c2ccsc2n1` as the compound, how does the IC50 (Prothrombin) read?
Its IC50 is > 50 µM (not active).

Which EC50 [4] does the source give for `Cc1cccc(Nc2nc(-c3cccs3)cs2)n1` here?
The EC50 was > 67.5 µM (inactive).

And the EC50 (cells [5])?
Its EC50 is > 67.5 µM (inactive).

What about the IC50 (Protein skinhead-1) of the same compound?
Its IC50 is > 100 µM (inactive).

What about the CC50 [6] of the same compound?
The CC50 was 9.85 µM (active).

What about the IC50 [7] of the same compound?
Its IC50 is > 67.5 µM (inactive).

What about the EC50 [8] of the same compound?
The EC50 was > 67.5 µM (inactive).

What does the source list for `CN(C)c1ccc(C(CNS(=O)(=O)c2ccc(F)cc2)c2c[nH]c3ccccc23)cc1` (stereo unspecified)?
IC50 [9]: > 69.5 µM (inactive); IC50 [10]: > 69.5 µM (inactive)

With `Clc1ccc(SCCOCCN2CCc3ccccc3C2)cc1` as the compound, how does the EC50 [11] read?
Its EC50 is > 60 µM (not active).

What about the EC50 [12] of the same compound?
Its EC50 is < 0.1 µM (active).

And the EC50 (cells [13])?
Its EC50 is 0.081 µM (active).

For `Cn1c(=O)oc2cc(S(=O)(=O)N3CCCC(C(=O)N4CCn5c4nc4ccccc45)C3)ccc21` (stereo unspecified), which IC50 [3] is on record?
The IC50 was > 100 µM (not active).

Which IC50 [14] does the source give for `COc1ccc(/C=C/C(=O)c2ccc(OC)cc2OC)cc1` here?
The IC50 was > 10 µM (inactive).

And the IC50 [15]?
Its IC50 is > 10 µM (inactive).

Which results are given for `CCOc1ccc(-[n+]2c(-c3ccc(Br)cc3)cn3c2CCCCC3)cc1`?
AC50 (INS1): 1.07 µM (active); CC50 [16]: 21.2 µM (active); AC50 [17]: 3.87 µM (active); EC50 [18]: > 160 µM (inactive); EC50 [11]: > 60 µM (not active); EC50 [12]: < 0.1 µM (active); EC50 (cells [13]): 0.073 µM (active)

Which IC50 [19] does the source give for `O=C(O)c1ccc(S(=O)(=O)c2ccc3c(c2)C(=O)N(Cc2ccco2)C3=O)cc1` here?
Its IC50 is > 100 µM (active).
